Read-outs that look alike come from different tables or passages of the source.
Tests used:
mu opiate receptor (MOR) = assay: MOR agonist activity using [35S]GTPγS binding assay in striatal membranes; type: biochemical; settings: for % DAMGO (0.1 μM) / % DAMGO (1 μM): relative to DAMGO; for % DAMGO + BFNA: 1 μM compound + β-FNA, relative to DAMGO + BFNA
Protocol: To assess the mu opiate receptor (MOR) agonist activity of positive compounds from the FLNA screening, compounds were tested in a [^35S]GTPγS binding assay using striatal membranes. […] This assay measures a functional consequence of receptor occupancy at one of the earliest receptor-mediated events. The assay permits traditional pharmacological parameters of potency, efficacy and antagonist affinity, with the advantage that agonist measures are not subjected to amplification or other modulation that may occur when analyzing parameters further downstream of the receptor.
Thus, striatal tissue was homogenized in 10 volumes of ice cold 25 mM HEPES buffer, pH 7.4, which contained 1 mM EGTA, 100 mM sucrose, 50 μg/ml leupeptin, 0.04 mM PMSF, 2 μg/ml soybean trypsin inhibitor and 0.2% 2-mercaptoethanol. The homogenates were centrifuged at 800×g for 5 minutes and the supernatants were centrifuged at 49,000×g for 20 minutes. The resulting pellets were suspended in 10 volume of reaction buffer, which contained 25 mM HEPES, pH 7.5, 100 mM NaCl, 50 μg/ml leupeptin, 2 μg/ml soybean trypsin inhibitor, 0.04 mM PMSF and 0.02% […].
The resultant striatal membrane preparation (200 μg) was admixed and maintained (incubated) at 30° C. for 5 minutes in reaction buffer as above that additionally contained 1 mM MgCl2 and 0.5 nM [^35S]GTPγS (0.1 μCi/assay, PerkinElmer Life and Analytical Sciences) in a total volume of 250 μl and continued for 5 minutes in the absence or presence of 0.1-10 μM of an assayed compound of interest. The reaction was terminated by dilution with 750 μl of ice-cold reaction buffer that contained 20 mM MgCl2 and 1 mM EGTA and immediate centrifugation at 16,000×g for 5 minutes.
The resulting pellet was solubilized by sonicating for 10 seconds in 0.5 ml of immunoprecipitation buffer containing 0.5% digitonin, 0.2% sodium cholate and 0.5% NP-40. Normal rabbit serum (1 μl) was added to 1 ml of lysate and incubated at 25° C. for 30 minutes. Nonspecific immune complexes were removed by incubation with 25 μl of protein A/G-conjugated agarose beads at 25° C. for 30 minutes followed by centrifugation at 5,000×g at 4° C. for 5 minutes. The supernatant was divided and separately incubated at 25° C. for 30 minutes with antibodies raised against Gαo proteins (1:1,000 dilutions).
The immunocomplexes so formed were collected by incubation at 25° C. for 30 minutes with 40 μl of agarose-conjugated protein A/G beads and centrifugation at 5,000×g at 4° C. for 5 minutes. The pellet was washed and suspended in buffer containing 50 mM Tris-HCl, pH 8.0, and 1% NP-40. The radioactivity in the suspension was determined by liquid scintillation spectrometry.

[1] = molecular target: FLNA pentapeptide of SEQ ID NO: 1 (Bn-VAKGL) (Homo sapiens, UniProt P21333); assay: FITC-NLX-based FLNA screening assay (inhibition of FITC-naloxone binding to Bn-VAKGL on streptavidin plates); settings: for inhibition at 0.01 µM / inhibition at 0.1 µM / inhibition at 1 µM: 10 nM FITC-NLX; for Percent inhibition of FITC-NLX binding (preliminary study): 100 nM frozen-stored FITC-NLX, average of two runs
[2] = Series B, 0.1 μM compound, [35S]GTPγS binding to Gαo, striatal membranes
[3] = Series B, 1 μM compound + 1 μM β-FNA
[4] = Series B, 1 μM compound, [35S]GTPγS binding to Gαo, striatal membranes
[5] = FLNA-binding compound 0.01 μM, read-out: Percent Binding Inhibition
[6] = FLNA-binding compound 0.1 μM, read-out: Percent Binding Inhibition
[7] = FLNA-binding compound 1 μM, read-out: Percent Binding Inhibition
[8] = Series C-2, 0.1 μM compound, [35S]GTPγS binding to Gαo, striatal membranes
[9] = Series C-2, 1 μM compound + 1 μM β-FNA
[10] = Series C-2, 1 μM compound, [35S]GTPγS binding to Gαo, striatal membranes
[11] = read-out: Percent Binding Inhibition, FLNA-binding compound 0.01 μM
[12] = read-out: Percent Binding Inhibition, FLNA-binding compound 0.1 μM
[13] = read-out: Percent Binding Inhibition, FLNA-binding compound 1 μM

COc1c2c(cc3c1C(CC(O)CCc1ccccc1)N(C)CC3)OCO2 (stereo not drawn) [Compound B0051]
% DAMGO (0.1 μM) (mu opiate receptor (MOR); Series B, 0.1 μM compound): 68.4%
MOR agonist activity, percent [35S]GTPγS binding at the stated compound concentration (mu opiate receptor (MOR); [2]): 115.6%
MOR agonist activity, percent [35S]GTPγS binding at the stated compound concentration (mu opiate receptor (MOR); [3]): 43.8%
% DAMGO + BFNA (mu opiate receptor (MOR); Series B): 263.9%
% DAMGO (1 μM) (mu opiate receptor (MOR); Series B, 1 μM compound): 76.7%
MOR agonist activity, percent [35S]GTPγS binding at the stated compound concentration (mu opiate receptor (MOR); [4]): 167.9%
inhibition at 0.01 µM [1, 5]: 29.9%
inhibition at 0.1 µM [1, 6]: 35.7%
inhibition at 1 µM [1, 7]: 43.7%

C=CCN1CCC2(CC1)OCCN2S(=O)(=O)c1ccc(C(C)=O)cc1 [Compound C0096M]
% DAMGO (0.1 μM) (mu opiate receptor (MOR); Series C-2, 0.1 μM compound): 105.9%
MOR agonist activity, percent [35S]GTPγS binding at the stated compound concentration (mu opiate receptor (MOR); [8]): 186.4%
MOR agonist activity, percent [35S]GTPγS binding at the stated compound concentration (mu opiate receptor (MOR); [9]): 127.1%
% DAMGO + BFNA (mu opiate receptor (MOR); Series C-2): 577.7%
% DAMGO (1 μM) (mu opiate receptor (MOR); Series C-2, 1 μM compound): 130.0%
MOR agonist activity, percent [35S]GTPγS binding at the stated compound concentration (mu opiate receptor (MOR); [10]): 328.9%
inhibition at 0.01 µM [1, 5]: 43%
inhibition at 0.1 µM [1, 6]: 48.3%
inhibition at 1 µM [1, 7]: 55%

COc1ccc(C(=O)CC2c3c(cc4c(c3OC)OCO4)CC[N+]2(C)C)c(O)c1 (stereo not drawn) [Compound B0033]
% DAMGO (0.1 μM) (mu opiate receptor (MOR); Series B, 0.1 μM compound): 77.6%
MOR agonist activity, percent [35S]GTPγS binding at the stated compound concentration (mu opiate receptor (MOR); [2]): 149.3%
MOR agonist activity, percent [35S]GTPγS binding at the stated compound concentration (mu opiate receptor (MOR); [3]): 41.9%
% DAMGO + BFNA (mu opiate receptor (MOR); Series B): 95.4%
% DAMGO (1 μM) (mu opiate receptor (MOR); Series B, 1 μM compound): 69.2%
MOR agonist activity, percent [35S]GTPγS binding at the stated compound concentration (mu opiate receptor (MOR); [4]): 188.9%
inhibition at 0.01 µM [1, 11]: 42.1%
inhibition at 0.1 µM [1, 12]: 46.8%
inhibition at 1 µM [1, 13]: 49.4%

O=S(=O)(c1cccc2cccnc12)N1CCC2(CC1)OCCN2S(=O)(=O)c1cccc2cccnc12 [Compound C0143M]
% DAMGO (0.1 μM) (mu opiate receptor (MOR); Series C-1, 0.1 μM compound): 47.1%
Concentration of FLNA-Binding Compound as Agonist 0.1 μM (mu opiate receptor (MOR); Series C-1, 0.1 μM compound, [35S]GTPγS binding to Gαo, striatal membranes): 81.0%
Concentration of FLNA-Binding Compound as Agonist 1 μM + BFNA (mu opiate receptor (MOR); Series C-1, 1 μM compound + 1 μM β-FNA): 86.5%
% DAMGO + BFNA (mu opiate receptor (MOR); Series C-1): 94.7%
% DAMGO (1 μM) (mu opiate receptor (MOR); Series C-1, 1 μM compound): 59.3%
Concentration of FLNA-Binding Compound as Agonist 1 μM (mu opiate receptor (MOR); Series C-1, 1 μM compound, [35S]GTPγS binding to Gαo, striatal membranes): 193.3%
% DAMGO (0.1 μM) (mu opiate receptor (MOR); Series C-2, 0.1 μM compound): 47.1%
Concentration of FLNA-Binding Compound as Agonist 0.1 μM (mu opiate receptor (MOR); [8]): 81.0%
Concentration of FLNA-Binding Compound as Agonist 1 μM + BFNA (mu opiate receptor (MOR); [9]): 86.5%
% DAMGO + BFNA (mu opiate receptor (MOR); Series C-2): 94.7%
% DAMGO (1 μM) (mu opiate receptor (MOR); Series C-2, 1 μM compound): 59.3%
Concentration of FLNA-Binding Compound as Agonist 1 μM (mu opiate receptor (MOR); [10]): 193.3%
inhibition at 0.01 µM [1, 11]: 45.3%
inhibition at 0.1 µM [1, 12]: 48.4%
inhibition at 1 µM [1, 13]: 57.8%

C=CCN1CC[C@]23c4c5ccc(O)c4O[C@H]2C(=O)CC[C@]3(O)[C@H]1C5 [(+) NLX]
Percent inhibition of FITC-NLX binding (preliminary study) ([1]; compound 0.1 nM): 22.7%
Percent inhibition of FITC-NLX binding (preliminary study) ([1]; compound 1 nM): 22.8%
Percent inhibition of FITC-NLX binding (preliminary study) ([1]; compound 10 nM): 23.1%
Percent inhibition of FITC-NLX binding (preliminary study) ([1]; compound 100 nM): 22.8%
Percent inhibition of FITC-NLX binding (preliminary study) ([1]; compound 1 µM): 39.8%

C=CCN1CC[C@]23c4c5ccc(O)c4O[C@H]2C(=O)CC[C@@]3(O)[C@H]1C5 [Naloxone Control, naloxone, reference compound]
inhibition at 0.01 µM [1, 11]: 39.9%
inhibition at 0.1 µM [1, 12]: 46.3%
inhibition at 1 µM [1, 13]: 50.9%

O=C1CC[C@@]2(O)[C@H]3Cc4ccc(O)c5c4[C@@]2(CCN3CC2CC2)[C@H]1O5 [NTX, naltrexone, reference compound]
Inhibition of 10 nM FITC-conjugated NLX binding to biotinylated FLNA pentapeptide (FIG. 28) ([1]; 1 μM): inhibit well

CC(=O)c1ccc(S(=O)(=O)N2CCC3(CC2)NCCO3)cc1 [Compound C0055]
inhibition at 0.01 µM [1, 5]: 29%
inhibition at 0.1 µM [1, 6]: 34.9%
inhibition at 1 µM [1, 7]: 39.5%

— US10363239B2, “Method for inhibiting growth of cancer cells” (Pain Therapeutics, Inc., priority 2013, dated 2019)
